# Experimental data reported in patent US20090305239A1, “Methods and compositions for determing a level of biologically active serum paraoxonase” (priority 2005, published 2009).
# “And” between values parts separate entries of the source, which are not always exact repeats. Equal entries are not always repeated.
# Experiments:
# rePON1 = rePON1 with 5-alkyl butyrolactones, taken from Ref. 4; cited from earlier work
# PON1 in human sera [1] = target: T1, PON1 in human sera (Homo sapiens, UniProt P27169); assay: Serum lactonase activity with TBBL (DTNB, 412 nm), with and without inhibitors; assay type: biochemical
# Description: (§1) Hydrolysis of phenyl acetate was monitored directly by absorbance at 270 nm (FIG. 2b).
# (§2) The reaction mixtures of phenyl acetate contained 1 mM phenyl acetate from 500 mM stock in methanol. All the reaction mixtures contained final 1% DMSO. […] The serum was incubated with the inhibitors for 5-10 minutes before the initiation of the reaction.
# (§3) In parallel, we the PON1 activity was determined with phenyl acetate, which is routinely used as a probe for PON1 levels in the serum.
# PON1 in human sera [2] = target: T1, PON1 in human sera; conditions: samples #1 and #2
# Description: as §1, §2, §3
# [3] = test system: recombinant PON1 variant rePON1-G2E6; conditions: substrate hydrolysis by rePON1; 50 mM Tris pH 8.0, 1 mM CaCl2, 50 mM NaCl; DTNB detection
# Description: The kinetic parameters of enzymatic hydrolysis of the three TXBLs by PON1 were determined by detecting the released thiol moiety with DTNB.
# Kinetics were performed with recombinant PON1 variant rePON1-G2E6 expressed in fusion with a thioredoxin and 6×His tag, and purified as described^[19].
# Kinetic measurements with DTNB—The rates of enzymatic hydrolyses of the thioalkyl-substituted lactones were determined in 50 mM Tris pH 8.0 with 1 mM CaCl2 and 50 mM NaCl (activity buffer). The enzyme stocks were kept in activity buffer containing 0.1% tergitol, and the enzyme concentration used was 8.375×10^−9 M. Stocks of 100-400 mM of substrates were prepared in acetonitrile and diluted with the reaction buffer immediately before initializing the reaction. […] The substrate concentrations were varied in the range of 0.3×KM up to (2-3)×KM. The co-solvent percentage was kept at 1% in all reactions. The DTNB dye (Ellman's reagent, 5′,5-dithio bis(2-nitrobenzoic acid) was used from 100 mM stock in DMSO, at a final concentration of 0.5 mM. An ε412 nm=7000 OD/M was used to calculate the activity. Product formation was monitored spectrophotometrically at 412 nm in 200 μl reaction volumes, using 96-well plates, on a microtiter plate reader (PowerWave HT™ Microplate Scanning Spectrophotometer; optical length ˜0.5 cm). Initial velocities (v0) were determined at eight different concentrations for each substrate. v0 values were corrected for the background rate of spontaneous hydrolysis in the absence of enzyme. Kinetic parameters (kcat, KM, kcat/KM) were obtained by fitting the data to the Michaelis-Menten equation [v0=kcat[E]0[S]0/([S]0+KM)], using the program Kaleidagraph 5.0.
# PON1 in human sera [4] = target: T1, PON1 in human sera; assay: biochemical; conditions: read-out: Serum activity with 1 mM phenyl acetate, 100 μM HQ (% of uninhibited activity), human serum 1:400 pre-incubated with 100 μM HQ; samples #1 and #2
# Description: as §1, §2, §3
# PON3 = assay: Lactonase activity of PON3 in purified enzyme samples and crude cell lysates; assay type: biochemical; conditions: data not shown
# [5] = test system: E. coli cells expressing recombinant PON1 (rePON1); assay: Detection of PON1 lactonase activity in living cells by FACS in w/o/w emulsions with TBBL and CPM; assay type: cell-based; conditions: TBBL with thiol-detecting dye CPM, emission at 530 nm, single E. coli cells in w/o/w emulsion
# Description: Shown are representative histograms of the fluorescent emission at 530 nm (the thiol-CPM adduct) for single cells expressing GFP and PON1 (white), and control cells with GFP only (grey).
# PON1 activity was also detected in living cells, using FACS (fluorescence-activated cell sorter) and emulsion droplets that compartmentalize the cells together with the products of the enzymatic activity^[15, 16]. […] The w/o emulsion was then re-emulsified, to generate the w/o/w double emulsion with a continuous water phase that is amenable to FACS^[15]. The FACS triggering threshold was set for the emission of GFP, and an appropriate gate was chosen corresponding to the level of emission of single E. coli cells^[16]. […] A clear difference (>20-fold in mean fluorescence) was observed relative to cells bearing no rePON1
# [6] = human serum 1:400 pre-incubated with 5 mM EDTA
# T1 sequence (P27169 whole entry): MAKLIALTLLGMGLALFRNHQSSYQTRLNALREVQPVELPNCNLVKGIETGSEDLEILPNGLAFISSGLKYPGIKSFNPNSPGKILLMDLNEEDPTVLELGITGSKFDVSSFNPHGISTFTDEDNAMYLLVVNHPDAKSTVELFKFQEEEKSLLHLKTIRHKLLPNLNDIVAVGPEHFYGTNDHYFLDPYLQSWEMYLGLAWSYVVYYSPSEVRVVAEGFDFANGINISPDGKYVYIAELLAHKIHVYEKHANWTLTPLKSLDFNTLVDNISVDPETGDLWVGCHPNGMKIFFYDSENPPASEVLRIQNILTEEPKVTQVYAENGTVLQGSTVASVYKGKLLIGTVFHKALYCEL
compound,measurement,setting,value
CCCCCCCC1CCC(=O)O1 (stereo not drawn) [γ-undecanoic lactone],Km,rePON1,600 ± 70 µM
same,kcat,rePON1,62 ± 2 s⁻¹
CCCCCC1CCC(=O)O1 (stereo not drawn) [γ-nonanoic lactone],Km,rePON1,390 ± 30 µM
same,kcat,rePON1,31 ± 2 s⁻¹
O=C(O)CN(CCN(CC(=O)O)CC(=O)O)CC(=O)O [EDTA],"Serum activity with 0.5 mM TBBL, 5 mM EDTA","PON1 in human sera [1]; human serum 1:400 pre-incubated with 5 mM EDTA, samples #1 and #2",0.04 ± 0.01 μM product/min and 0.06 ± 0.01 μM product/min
same,inhibition rates by EDTA,"PON1 in human sera [1]; serum lactonase (TBBL) and aryl esterase (phenyl acetate) activities, 5 mM EDTA",> 99%
same,"Serum activity with 1 mM phenyl acetate, 5 mM EDTA",PON1 in human sera [2]; [6],~0 μM product/min
same,"Serum activity with 1 mM phenyl acetate, 5 mM EDTA (% of uninhibited activity)",PON1 in human sera [2]; [6],(0%)
"CCCCCCSC1CCC(=O)O1 (stereo not drawn) [THBL, 5-hexylsulfanyl-dihydro-furan-2-one]",Km,[3],350 ± 30 µM
same,kcat,[3],52.4 ± 2.6 s⁻¹
"Oc1ccc2ccccc2n1 [HQ, 2-hydroxyquinoline]","Serum activity with 0.5 mM TBBL, 100 μM HQ","PON1 in human sera [1]; human serum 1:400 pre-incubated with 100 μM HQ, samples #1 and #2",2.09 ± 0.04 μM product/min and 1.80 ± 0.01 μM product/min
same,activity at 100 µM,"PON1 in human sera [1]; read-out: Serum activity with 0.5 mM TBBL, 100 μM HQ (% of uninhibited activity), human serum 1:400 pre-incubated with 100 μM HQ, samples #1 and #2",8.6%
same,"Serum activity with 1 mM phenyl acetate, 100 μM HQ",PON1 in human sera [2]; human serum 1:400 pre-incubated with 100 μM HQ,5.9 ± 0.4 μM product/min and 3.9 ± 0.3 μM product/min
same,activity at 100 µM,PON1 in human sera [4],4.9%
"CCSC1CCC(=O)O1 (stereo not drawn) [TEBL, 5-ethylsulfanyl-dihydro-furan-2-one]",lactonase activity of PON3 assayed with the substrate,PON3,could be assayed
same,Km,[3],360 ± 50 µM
same,kcat,[3],161 ± 10 s⁻¹
"CCCCSC1CCC(=O)O1 (stereo not drawn) [TBBL, 5-butylsulfanyl-dihydro-furan-2-one]",lactonase activity of PON3 assayed with the substrate,PON3,could be assayed
same,difference in mean fluorescence relative to cells bearing no rePON1,[5],> 20 fold
same,Km,[3],270 ± 40 µM
same,kcat,[3],116 ± 4 s⁻¹
